Reference: US6586437B2, “(S)-hydroxynefazodone antipsychotic therapy” (Sepracor Inc., priority 1999, dated 2003)
Structures can show the parent of a compound that is named as a salt. Each block holds one compound with its values, some of them ahead of it.

How the values were obtained:
α1 Receptor = test: α1 receptor binding; conditions: read-out: α1 Receptor Binding IC50, Alpha1
[1] = target: T1, norepinephrine uptake, rat hypothalamus synaptosomes (Rattus norvegicus, UniProt Q9WTR4); test: Norepinephrine uptake functional assay (synaptosomes); format: biochemical, male Wistar rat; conditions: [3H]-norepinephrine, read-out: Monoamine Neuronal Transport IC50, NE uptake
T1 construct: synaptosomes isolated at Cerep in a 0.32 M sucrose buffer from a male Wistar rat hypothalamus; from tissue; host or cells: male Wistar rat hypothalamus synaptosomes
Method: Norepinephrine Uptake Functional Assay
Characterization of norepinephrine uptake is performed using synaptosomes isolated at Cerep in a 0.32 M sucrose buffer from a male Wistar rat hypothalamus. The uptake of radiolabeled norepinephrine by synaptosomes (100 μg of proteins/point) is allowed by incubating them for 20 minutes at 37° C. in presence of test compounds and [3H]-norepinephrine (0.1 μCi/point). The experiment is performed in a deep well.
Synaptosomes and [3H]-norepinephrine are prepared in a Krebs buffer pH 7.4 containing 25 mM NaHCO3, 11 mM glucose and 50 μM ascorbic acid. This incubation buffer is oxygenated during 5 minutes before incubation. Basal control is incubated for 20 minutes at 4° C. in order to avoid any uptake. Following this incubation the uptake is stopped by filtration through an “unifilter 96-wells GFB ” Packard plate washed with Krebs buffer containing 25 mM NaHCO3 in order to eliminate the free [3H]-norepinephrine. The radioactivity associated to the synaptosomes retained onto the unifilter corresponding to the uptake is then measured with a microplate scintillation counter Topcount, Packard using a scintillation liquid microscint 0, Packard.
[See Perovics and Müller, op.cit. (1995).]

[2] = cited from earlier work
[3] = system: beta adrenergic receptors; conditions: in vitro binding studies; cited from earlier work
cholinergic receptors = conditions: in vitro binding studies; cited from earlier work
5-HT1A receptors = target: T2, 5-HT1A receptors (Homo sapiens, UniProt P08908); conditions: in vitro binding studies; cited from earlier work
T2 sequence (P08908 1-422): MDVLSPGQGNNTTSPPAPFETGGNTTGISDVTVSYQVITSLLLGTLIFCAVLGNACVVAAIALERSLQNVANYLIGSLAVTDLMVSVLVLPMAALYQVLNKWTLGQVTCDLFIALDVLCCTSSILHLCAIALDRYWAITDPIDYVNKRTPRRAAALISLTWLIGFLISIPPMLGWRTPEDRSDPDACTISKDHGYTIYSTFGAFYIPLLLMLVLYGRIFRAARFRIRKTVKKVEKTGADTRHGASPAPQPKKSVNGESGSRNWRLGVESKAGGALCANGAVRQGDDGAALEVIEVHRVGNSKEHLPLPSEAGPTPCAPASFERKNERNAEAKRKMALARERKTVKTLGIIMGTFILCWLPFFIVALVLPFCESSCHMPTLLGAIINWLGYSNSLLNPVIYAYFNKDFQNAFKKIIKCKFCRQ

[4] = system: alpha2 adrenergic receptors; conditions: in vitro binding studies; cited from earlier work
dopaminergic receptors = conditions: in vitro binding studies; cited from earlier work
[5] = system: alpha1-adrenergic receptors; conditions: cited from earlier work
benzodiazepine receptors = conditions: in vitro binding studies; cited from earlier work

T1 sequence (Q9WTR4 1-597): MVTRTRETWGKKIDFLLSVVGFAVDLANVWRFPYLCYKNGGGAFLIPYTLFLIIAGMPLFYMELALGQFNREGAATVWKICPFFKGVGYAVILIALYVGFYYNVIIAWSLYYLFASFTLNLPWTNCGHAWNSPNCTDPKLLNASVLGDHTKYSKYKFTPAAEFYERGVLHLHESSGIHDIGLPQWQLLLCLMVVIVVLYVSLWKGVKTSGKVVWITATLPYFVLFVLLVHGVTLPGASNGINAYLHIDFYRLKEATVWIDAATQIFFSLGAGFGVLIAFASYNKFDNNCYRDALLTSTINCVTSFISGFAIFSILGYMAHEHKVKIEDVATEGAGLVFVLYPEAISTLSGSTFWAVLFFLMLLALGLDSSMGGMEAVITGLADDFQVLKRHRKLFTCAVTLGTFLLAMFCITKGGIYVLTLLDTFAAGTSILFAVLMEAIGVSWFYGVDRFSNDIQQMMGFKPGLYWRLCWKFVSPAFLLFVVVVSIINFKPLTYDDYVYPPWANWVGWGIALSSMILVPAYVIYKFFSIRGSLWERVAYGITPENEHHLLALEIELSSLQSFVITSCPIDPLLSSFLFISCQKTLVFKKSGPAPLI

Structure (SMILES): CC(O)c1nn(CCCN2CCN(c3cccc(Cl)c3)CC2)c(=O)n1CCOc1ccccc1 (racemic) [(RS)—OH, 2-[3-[4-(3-chlorophenyl)1-piperazinyl]propyl]-5-(1-hydroxyethyl)-2,4-dihydro-4-(phenoxyethyl)-3H-1,2,4-triazol-3-one]
IC50 (α1 Receptor): 381 nM | IC50 [1]: 1000 nM

Structure (SMILES): C[C@@H](O)c1nn(CCCN2CCN(c3cccc(Cl)c3)CC2)c(=O)n1CCOc1ccccc1 [(R)—OH, (R)-Hydroxynefazodone hydrochloride]
IC50 (α1 Receptor): 367 nM | IC50 [1]: 1200 nM

Structure (SMILES): CCc1nn(CCCN2CCN(c3cccc(Cl)c3)CC2)c(=O)n1CCOc1ccccc1 [Nefazodone hydrochloride]
absolute bioavailability ([2]; low and variable because of extensive metabolism): about 20%

Now from value to compound, other results behind:

IC50 (α1 Receptor): 419 nM | IC50 [1]: 1500 nM
Structure (SMILES): C[C@H](O)c1nn(CCCN2CCN(c3cccc(Cl)c3)CC2)c(=O)n1CCOc1ccccc1 [(S)—OH, (S)-2-{3-[4-(3-Chlorophenyl)-1-piperazinyl]propyl}-4-(2-phenoxyethyl)-5-[1-(hydroxy)-ethyl]-2,4-dihydro-[1,2,4]triazol-3-one]

IC50 (α1 Receptor): 306 nM
Structure (SMILES): CCc1nn(CCCN2CCN(c3cccc(Cl)c3)CC2)c(=O)n1CCOc1ccccc1 [Nefazodone]
affinity for beta adrenergic receptors [3]: no significant affinity | affinity for cholinergic receptors (cholinergic receptors): no significant affinity | affinity for 5-HT1A receptors (5-HT1A receptors): no significant affinity | affinity for alpha2 adrenergic receptors [4]: no significant affinity | half-life ([2]; in vivo): 2 to 4 h | time of peak plasma concentrations ([2]; in vivo): about one | affinity for dopaminergic receptors (dopaminergic receptors): no significant affinity | effect on alpha1-adrenergic receptors [5]: antagonize | affinity for benzodiazepine receptors (benzodiazepine receptors): no significant affinity
